Experimental findings from patent US20230416329A1, “A PEPTIDE WITH DISULFIDE BONDS AND INHIBITORY ACTIVITY AGAINST SERINE PROTEASES, DERIVED HYBRID PEPTIDES THEREOF, AND USES THEREOF” (INSTITUTE OF MATERIA MEDICA , CHINESE ACADEMY OF MEDICAL …, priority 2020, published 2023) are described below.

The IC50 is the concentration needed to halve the response being measured. One may read the Ki as the equilibrium dissociation constant of an inhibitor or competing ligand from its target.

Like-named read-outs stand apart in the source and are kept apart here. Bridge positions count the residues as written; N and C are the ends. Peptide text beside a SMILES is read from it.

This experiment addresses T1, bovine trypsin (Bos taurus, UniProt P00760).
T1 sequence (P00760 24-246): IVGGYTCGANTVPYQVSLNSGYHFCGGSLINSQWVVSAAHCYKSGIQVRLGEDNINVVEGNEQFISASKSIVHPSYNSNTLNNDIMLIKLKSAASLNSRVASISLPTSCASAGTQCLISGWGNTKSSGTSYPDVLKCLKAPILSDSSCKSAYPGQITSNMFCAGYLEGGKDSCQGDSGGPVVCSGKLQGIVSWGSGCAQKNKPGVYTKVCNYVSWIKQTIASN
The experiment can be described thus: Trypsin inhibitory activity of peptides (BApNA hydrolysis, OD405; IC50, Ki, residual activity). The class given is biochemical. Here is the method: The substrates N-succinyl-Ala-Ala-Pro-Phe-p-nitroaniline (AAPFpNA), Nα—Benzoyl-L-arginine-4-nitroaniline hydrochloride (BApNA) and N-succinyl-[…] (AAApNA) are used in competitive binding reaction to determine the inhibitory activities against α-chymotrypsin, bovine trypsin, and porcine pancreatic elastase, respectively. Experiments for α-chymotrypsin and bovine trypsin inhibition were measured in 20 mM CaCl2, 50 mM Tris-HCl buffer (pH 7.8), and that for porcine elastase inhibition was measured in 50 mM Tris-HCl buffer (pH 8.0). The concentration of the peptide was measured using optical density (OD) at 280 nm. The Michaelis constant (Km) of the enzyme hydrolysis substrate is calculated from the initial rate of substrate hydrolysis at 405 nm. The absorbance value of the substrate was measured at 405 nm after complete hydrolysis. All data were processed using nonlinear regression.
• (1) Added 200 μL of reaction buffer (20 mM CaCl2 and 50 mM Tris-HCl, pH 7.8) into the 96-well plate, and preheated at 37° C. for 15 min. Then added 5 μL of different concentrations of substrates (p-Nitroanilide, pNA, 0.5% in DMSO), and mixed by centrifugation at 500 rpm for 1 min. […] The experiment was performed in triplicate. The standard curve was obtained by plotting the OD405 nm value with pNA concentration. • (2) Added 190 μL of reaction buffer (20 mM CaCl2 and 50 mM Tris-HCl, pH 7.8) and 10 μL of 1 μM trypsin into the 96-well plate, and preheated at 37° C. for 15 min. Then added 5 μL of different concentrations of substrates (BApNA, 0.5% in DMSO) and mixed by centrifugation at 500 rpm for 1 min. […] The experiment was performed in triplicate. The corresponding curve was obtained by plotting the OD405 nm value with time. Divided the slope of the curve by the slope of the standard curve and the enzyme concentration to obtain the initial velocity V0 (mM/(min*mM protein). Plotted the initial velocity V0 with the concentration of substrate BApNA using Prism software, and the Michaelis constant Km value of trypsin hydrolyzing BApNA was obtained.
• (1) Added a total 190 μL of reaction buffer (20 mM CaCl2 and 50 mM Tris-HCl, pH 7.8) along with different concentrations of anti-trypsin peptides (BTs) into the pre-cooled 96-well plate, followed by preheating at 37° C., and spined down at 500 rpm for 5 min. Next added 10 μL of 1 μM trypsin, incubated at 37° C., and then spined down at 500 rpm for 10 min. Finally, added 5 μL of 50 mM BApNA, and mixed by centrifugation at 500 rpm for 1 min. The plate was incubated at 37° C. for 260 min, and the absorbance value at 405 nm was measured. The experiment was performed in triplicate. The blank control only contained the reaction buffer and the substrate as the minimum absorption value (Min OD405 nm). The negative control only contained the reaction buffer, the enzyme and the substrate as the maximum absorption value (Max OD405 nm). • (2) In the reaction system of 205 μL, the final concentrations of trypsin and BApNA were 50 nM and 1.22 mM, respectively. • (3) Data statistics
Residual activity of the enzyme (%)=(1−(Max OD405 nm−Sample OD405 nm)/(Max OD405 nm−Min OD405 nm))*100
Plotted the residual activity of the enzyme with […] to obtain the half inhibitory concentration (IC50) of BTs scaffold against trypsin. Then, substituted it into the formula Ki=IC50/(1+S/Km) (S, IC50 and Km were substrate concentration, half inhibitory concentration and Michaelis constant, respectively) to obtain the inhibition constant Ki of BTs scaffold against trypsin.

The mark [1] stands for this setting: trypsin 50 nM, BApNA 1.22 mM, read-out: IC50.
Where [2] appears, read: Ki=IC50/(1+S/Km), Km 0.33 mM, read-out: Ki.

For the compound `CC[C@H](C)[C@@H]1NC(=O)[C@H](CO)NC(=O)[C@H](CCCCN)NC(=O)[C@H]([C@@H](C)O)NC(=O)[C@H](C)NC(=O)[C@H](CCCNC(=N)N)NC(=O)CNC(=O)[C@@H](N)CSSC[C@@H](C(=O)O)NC(=O)[C@H](CCCNC(=N)N)NC(=O)[C@H](C)NC(=O)[C@H](CCC(N)=O)NC(=O)[C@@H]2CCCN2C(=O)[C@@H]2CCCN2C1=O` [BT34] (H-CGRATKSIPPQARC-OH; disulfide 1-14), under setting [1], the IC50 is > 50000 nM.

As for `CC[C@H](C)[C@@H]1NC(=O)[C@@H]2CCCN2C(=O)[C@@H]2CCCN2C(=O)[C@H]([C@@H](C)CC)NC(=O)[C@H](CO)NC(=O)[C@H](CCCCN)NC(=O)[C@H]([C@@H](C)O)NC(=O)[C@H](C)NC(=O)[C@H](CCCNC(=N)N)NC(=O)[C@H](CCCCN)NC(=O)[C@@H](N)CSSC[C@@H](C(=O)N[C@@H](Cc2ccccc2)C(=O)O)NC1=O` [BT77] (H-CKRATKSIPPICF-OH; disulfide 1-12; N-terminus and C-terminus assumed), the “inhibitory activity against trypsin (in words)” value (“inhibitory activity” for short) was “excellent trypsin inhibitory activities”. Under setting [2], the Ki stood at 8.5 nM. Also, the IC50 under setting [1] was 40 nM.

For the compound `CC[C@H](C)[C@@H]1NC(=O)[C@@H]2CCCN2C(=O)[C@@H]2CCCN2C(=O)[C@H]([C@@H](C)CC)NC(=O)[C@H](C)NC(=O)[C@H](CCCCN)NC(=O)[C@H]([C@@H](C)O)NC(=O)[C@H](C)NC(=O)[C@H](CCCNC(=N)N)NC(=O)CNC(=O)[C@@H](N)CSSC[C@@H](C(=O)N[C@@H](Cc2ccccc2)C(=O)O)NC1=O` [BT27] (H-CGRATKAIPPICF-OH; disulfide 1-12; C-terminus assumed), the “inhibitory activity” value is listed as “reduced their anti-trypsin activities”. Moreover, under setting [2], the Ki was determined as 60 nM. Besides, the “inhibitory activity” value (listed as SEQ ID NO: 27) is on record as “excellent trypsin inhibitory activities”. Under “peptide 0.000098 μM”, the Residual trypsin activity amounted to 101.0 ± 0.7%. The Residual trypsin activity (peptide 0.00098 μM) is 98.9 ± 1.5%. In addition, the Residual trypsin activity (peptide 0.0098 μM) was found to be 103.5 ± 2.4%. In addition, the Residual trypsin activity (peptide 0.098 μM) was determined as 92.0 ± 1.9%. Also, where the note is “peptide 0.195 μM”, the Residual trypsin activity came to 74.1 ± 1.3%. For the same compound, the Residual trypsin activity (peptide 0.293 μM) is recorded as 49.2 ± 3.0%. Further, the Residual trypsin activity (peptide 0.390 μM) came out at 19.9 ± 6.3%. Moreover, the Residual trypsin activity (peptide 0.98 μM) was 1.3 ± 0.3%. Further, where the note is “peptide 9.76 μM”, the Residual trypsin activity came to 0.1 ± 0.0%. The Residual trypsin activity (peptide 97.56 μM) turned out to be 0.1 ± 0.0%.

As to `CC[C@H](C)[C@@H]1NC(=O)[C@@H]2CCCN2C(=O)[C@@H]2CCCN2C(=O)[C@H]([C@@H](C)CC)NC(=O)[C@H](CO)NC(=O)[C@H](CCCCN)NC(=O)[C@H]([C@@H](C)O)NC(=O)[C@H](C)NC(=O)[C@H](CCCNC(=N)N)NC(=O)[C@H](CCC(=O)O)NC(=O)[C@@H](N)CSSC[C@@H](C(=O)N[C@@H](Cc2ccccc2)C(=O)O)NC1=O` [BT78] (H-CERATKSIPPICF-OH; disulfide 1-12; N-terminus and C-terminus assumed), the “inhibitory activity” value is given as “excellent trypsin inhibitory activities”. The IC50 under setting [1] stood at 30 nM.

On to `CC[C@H](C)[C@@H]1NC(=O)[C@@H]2CCCN2C(=O)[C@@H]2CCCN2C(=O)[C@H]([C@@H](C)CC)NC(=O)[C@H](CO)NC(=O)[C@H](CCCCN)NC(=O)[C@H]([C@@H](C)O)NC(=O)[C@H](C)NC(=O)[C@H](CCCNC(=N)N)NC(=O)CNC(=O)[C@@H](N)CSSC[C@@H](C(=O)O)NC(=O)[C@H](C)NC1=O` [BT13] (H-CGRATKSIPPIAC-OH; disulfide 1-13; N-terminus and C-terminus assumed), for which the “inhibitory activity” value is given as “still maintained good inhibitory activity against trypsin”.

For `CC[C@H](C)[C@@H]1NC(=O)[C@H](CO)NC(=O)[C@H](CCCCN)NC(=O)[C@H]([C@@H](C)O)NC(=O)[C@@H](NC(=O)[C@@H](N)CCCNC(=N)N)CSSC[C@@H](C(=O)N[C@@H](Cc2ccccc2)C(=O)O)NC(=O)[C@H](Cc2c[nH]cn2)NC(=O)[C@@H]2CCCN2C(=O)[C@@H]2CCCN2C1=O` [BT62] (H-RCTKSIPPHCF-OH; disulfide 2-10; N-terminus and C-terminus assumed), under setting [2], the Ki worked out at 10 nM. Besides, under setting [1], the IC50 worked out at 70 nM.

With `CC[C@H](C)[C@@H]1NC(=O)[C@@H]2CCCN2C(=O)[C@@H]2CCCN2C(=O)[C@H]([C@@H](C)CC)NC(=O)[C@H](CO)NC(=O)[C@H](CCCCN)NC(=O)[C@H]([C@@H](C)O)NC(=O)[C@H](C)NC(=O)[C@H]([C@@H](C)O)NC(=O)CNC(=O)[C@@H](N)CSSC[C@@H](C(=O)N[C@@H](Cc2ccccc2)C(=O)O)NC1=O` [BT25] (H-CGTATKSIPPICF-OH; disulfide 1-12; C-terminus assumed), the “inhibitory activity” value is listed as “excellent trypsin inhibitory activities”. The Residual trypsin activity (peptide 0.00098 μM) turned out to be 100.6 ± 1.3%. For the same compound, the Residual trypsin activity (peptide 0.0098 μM) is listed as 99.6 ± 1.4%. Also, where the note is “peptide 0.098 μM”, the Residual trypsin activity is reported as 100.4 ± 1.2%. In addition, for the setting “peptide 0.7317 μM”, the Residual trypsin activity was determined as 82.3 ± 3.9%. Further, the Residual trypsin activity (peptide 0.98 μM) is 49.7 ± 3.5%. For the same compound, under “peptide 1.2195 μM”, the Residual trypsin activity is given as 23.2 ± 2.1%. The Residual trypsin activity (peptide 9.76 μM) is 1.0 ± 0.1%. For the same compound, under “peptide 97.56 μM”, the Residual trypsin activity is 0.2 ± 0.1%. Under “peptide 292.68 μM”, the Residual trypsin activity is reported as 0.2 ± 0.2%.

As to `CC[C@H](C)[C@@H]1NC(=O)[C@@H]2CCCN2C(=O)[C@@H]2CCCN2C(=O)[C@H]([C@@H](C)CC)NC(=O)[C@H](CO)NC(=O)[C@H](CCCCN)NC(=O)[C@H]([C@@H](C)O)NC(=O)[C@H](Cc2ccc(O)cc2)NC(=O)[C@H](CCCNC(=N)N)NC(=O)CNC(=O)[C@@H](N)CSSC[C@@H](C(=O)N[C@@H](Cc2ccccc2)C(=O)O)NC1=O` [BT53] (H-CGRYTKSIPPICF-OH; disulfide 1-12; C-terminus assumed), half-maximal inhibition (IC50) was put at 120 nM, the Ki stood at 30 nM and the “inhibitory activity” value is “good inhibitory activities against trypsin”. The “inhibitory activity” value (listed as SEQ ID NO: 53) was “excellent trypsin inhibitory activities”. Moreover, the Residual trypsin activity (peptide 0.000098 μM) worked out at 104.2 ± 0.5%. In addition, the Residual trypsin activity (peptide 0.00098 μM) came to 108.9 ± 2.0%. Moreover, where the note is “peptide 0.0098 μM”, the Residual trypsin activity came to 106.0 ± 0.4%. The Residual trypsin activity (peptide 0.0488 μM) is 87.4 ± 4.9%. Further, the Residual trypsin activity (peptide 0.0585 μM) is recorded as 84.9 ± 2.2%. The Residual trypsin activity (peptide 0.07317 μM) was 75.2 ± 2.8%. Besides, the Residual trypsin activity (peptide 0.098 μM) is 63.0 ± 1.9%. Besides, the Residual trypsin activity (peptide 0.98 μM) was found to be 0.5 ± 0.2%. Also, the Residual trypsin activity (peptide 9.76 μM) came out at 0.2 ± 0.0%. Besides, the Residual trypsin activity (peptide 97.56 μM) is 0.0 ± 0.1%.

Consider `CC(C)C[C@@H]1NC(=O)[C@H](CO)NC(=O)[C@H](CCCCN)NC(=O)[C@H]([C@@H](C)O)NC(=O)[C@H](C)NC(=O)[C@H](CCCNC(=N)N)NC(=O)CNC(=O)[C@@H](N)CSSC[C@@H](C(=O)N[C@@H](Cc2ccccc2)C(=O)O)NC(=O)[C@H](C)NC(=O)[C@@H]2CCCN2C(=O)[C@@H]2CCCN2C1=O` [BT14] (H-CGRATKSLPPACF-OH; disulfide 1-12; N-terminus and C-terminus assumed), for which the “inhibitory activity” value is “reduced their anti-trypsin activities”.
